# Test results from article PMC7694328, “Synthesis and Glycosidase Inhibition Properties of Calix[8]arene-Based Iminosugar Click Clusters” (Pharmaceuticals, 2020).
# Values joined by “and” are separate entries in the source; they are usually repeats but may differ in a detail not shown here. Identical values can stand only once. Like-named read-outs stand apart in the source and are kept apart here.
# Tests used:
# [1] = biological target: T1, Jack Bean α-mannosidase (JBα-man) (Canavalia ensiformis, UniProt C0HJB3); conditions: cited from earlier work; for rp/n: cyclopeptoid-based clusters
# T1 construct: two LH heterodimers, each constituted by two distinct chains, L and H; purchased Sigma Aldrich
# T1 sequence (C0HJB3 1-562 limits assumed): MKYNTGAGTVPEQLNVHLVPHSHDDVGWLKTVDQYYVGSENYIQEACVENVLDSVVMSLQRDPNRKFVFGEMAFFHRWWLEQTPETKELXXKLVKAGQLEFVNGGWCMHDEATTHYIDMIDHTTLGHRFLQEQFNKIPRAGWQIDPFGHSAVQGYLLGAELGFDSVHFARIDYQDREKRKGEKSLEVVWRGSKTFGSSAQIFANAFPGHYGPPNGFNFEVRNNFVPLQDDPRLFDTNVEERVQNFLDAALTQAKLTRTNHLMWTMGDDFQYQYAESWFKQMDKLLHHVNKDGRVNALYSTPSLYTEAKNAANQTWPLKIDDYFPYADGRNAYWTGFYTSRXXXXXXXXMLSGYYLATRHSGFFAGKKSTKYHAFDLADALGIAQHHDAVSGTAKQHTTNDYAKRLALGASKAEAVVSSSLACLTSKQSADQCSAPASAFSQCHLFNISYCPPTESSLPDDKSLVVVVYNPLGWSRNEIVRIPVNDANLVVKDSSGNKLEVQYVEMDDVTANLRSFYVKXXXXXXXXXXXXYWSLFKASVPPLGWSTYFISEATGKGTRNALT
# T1 sequence (C0HJB3 563-981 limits assumed): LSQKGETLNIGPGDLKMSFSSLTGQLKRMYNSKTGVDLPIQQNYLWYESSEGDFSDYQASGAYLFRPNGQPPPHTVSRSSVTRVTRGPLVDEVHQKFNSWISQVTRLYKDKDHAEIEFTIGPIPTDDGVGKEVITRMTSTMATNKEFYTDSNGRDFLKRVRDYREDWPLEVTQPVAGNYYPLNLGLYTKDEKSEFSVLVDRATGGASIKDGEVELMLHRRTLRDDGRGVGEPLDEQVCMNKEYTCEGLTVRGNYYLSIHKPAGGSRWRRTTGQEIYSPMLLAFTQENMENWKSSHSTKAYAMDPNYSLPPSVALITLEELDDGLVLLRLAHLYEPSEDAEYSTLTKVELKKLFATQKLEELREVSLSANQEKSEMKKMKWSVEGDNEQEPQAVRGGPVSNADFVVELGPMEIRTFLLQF
# [2] = biological target: T1, Jack Bean α-mannosidase (JBα-man); assay: Inhibition assay against Jack Bean α-mannosidase (hydrolysis of p-nitrophenyl-α-D-mannopyranoside); assay type: biochemical
# Procedure: p-nitrophenyl-α-D-mannopyranoside and α-mannosidase (EC 3.2.1.24, from Jack Bean, Km = 2.0 mM pH 5.5) were purchased from Sigma Aldrich(St. Louis, MO, USA).
# General procedure for Inhibition assay with basic quench: Inhibitory potencies were determined spectrophotometrically (Versamax 96-well plate spectrophotometer, Molecular Devices Corporation, Sunnyvale, CA, USA) measuring the residual hydrolytic activities of the mannosidase against p-nitrophenyl-α-D-mannopyranoside in the presence and absence of the inhibitor. All kinetics were performed at 25 °C and started by enzyme addition (0.015 U/mL) in a 100 µL assay medium (acetate buffer, 0.2 M, pH = 5) containing substrate (varying concentration from Km/8 to 2Km value) in presence or absence of various concentrations of inhibitor. After 40–50 min incubation, the reaction was quenched by addition of 1M Na2CO3 (100 µL). The absorbance of the resulting solution was determined at 405 nm. Ki values were determined in duplicate or triplicate, using the Dixon and Lineweaver–Burk graphical methods with Microsoft Excel 97-03, or using non-linear regression with GraphPad Prism 7 Software. As the inhibitors are only partially soluble in water, they were dissolved in DMSO for concentrated mother solutions and DMSO/buffer for diluted solutions with a final DMSO concentration under 4% in all wells. Previously, the stability of the enzymes in presence of various concentrations of DMSO was controlled and the enzyme activity was unaffected.
# General procedure for inhibition assay measured continuously: The release of p-nitrophenol was measured continuously at 385 nm to determine initial velocities. […] Under these conditions, the p-nitrophenolate released led to optical densities linear with both reaction time and concentration of the enzyme. Ki values were determined in duplicate or quadruplate, using the Dixon graphical method. As the inhibitors are only partially soluble in water, they were dissolved in DMSO for concentrated mother solutions and DMSO/buffer for diluted solutions with a final DMSO concentration under 5% in all vials. […]
# [3] = calix[4]arene cluster and its monovalent reference, read-out: Ki
smiles,measurement,setting,value
O=C1CN(Cc2cn(CCCCCCCCCN3C[C@H](O)[C@@H](O)[C@H](O)[C@H]3CO)nn2)C(=O)CN(Cc2cn(CCCCCCCCCN3C[C@H](O)[C@@H](O)[C@H](O)[C@H]3CO)nn2)C(=O)CN(Cc2cn(CCCCCCCCCN3C[C@H](O)[C@@H](O)[C@H](O)[C@H]3CO)nn2)C(=O)CN(Cc2cn(CCCCCCCCCN3C[C@H](O)[C@@H](O)[C@H](O)[C@H]3CO)nn2)C(=O)CN(Cc2cn(CCCCCCCCCN3C[C@H](O)[C@@H](O)[C@H](O)[C@H]3CO)nn2)C(=O)CN1Cc1cn(CCCCCCCCCN2C[C@H](O)[C@@H](O)[C@H](O)[C@H]2CO)nn1 [Compound 1a],rp/n,[1],3 and ~ 3
O=C1CN(Cc2cn(CCCCCCCCCN3C[C@H](O)[C@@H](O)[C@H](O)[C@H]3CO)nn2)C(=O)CN(Cc2cn(CCCCCCCCCN3C[C@H](O)[C@@H](O)[C@H](O)[C@H]3CO)nn2)C(=O)CN(Cc2cn(CCCCCCCCCN3C[C@H](O)[C@@H](O)[C@H](O)[C@H]3CO)nn2)C(=O)CN(Cc2cn(CCCCCCCCCN3C[C@H](O)[C@@H](O)[C@H](O)[C@H]3CO)nn2)C(=O)CN(Cc2cn(CCCCCCCCCN3C[C@H](O)[C@@H](O)[C@H](O)[C@H]3CO)nn2)C(=O)CN(Cc2cn(CCCCCCCCCN3C[C@H](O)[C@@H](O)[C@H](O)[C@H]3CO)nn2)C(=O)CN(Cc2cn(CCCCCCCCCN3C[C@H](O)[C@@H](O)[C@H](O)[C@H]3CO)nn2)C(=O)CN1Cc1cn(CCCCCCCCCN2C[C@H](O)[C@@H](O)[C@H](O)[C@H]2CO)nn1 [Compound 1b],rp/n,[1],3 and ~ 3
CC(C)(C)c1cc2c(OCc3cn(CCCN4C[C@H](O)[C@@H](O)[C@H](O)[C@H]4CO)nn3)c(c1)Cc1cc(C(C)(C)C)cc(c1OCc1cn(CCCN3C[C@H](O)[C@@H](O)[C@H](O)[C@H]3CO)nn1)Cc1cc(C(C)(C)C)cc(c1OCc1cn(CCCN3C[C@H](O)[C@@H](O)[C@H](O)[C@H]3CO)nn1)Cc1cc(C(C)(C)C)cc(c1OCc1cn(CCCN3C[C@H](O)[C@@H](O)[C@H](O)[C@H]3CO)nn1)C2 [Compound 2],Ki,[1]; [3],1.5 µM
same,rp/n (affinity enhancement per iminosugar),[1]; calix[4]arene cluster,70 and ~ 70
CCCc1cn(CCCCCCN2C[C@H](O)[C@@H](O)[C@H](O)[C@H]2CO)nn1 [Compound 3],Ki,"[1]; monovalent reference, C6 chain, read-out: Ki",322 µM
CCCc1cn(CCCCCCCCCN2C[C@H](O)[C@@H](O)[C@H](O)[C@H]2CO)nn1 [Compound 4],Ki,"[1]; monovalent reference, C9 chain, read-out: Ki",188 µM
OCc1cn(CCCN2C[C@H](O)[C@@H](O)[C@H](O)[C@H]2CO)nn1 [Compound 5],Ki,[1]; [3],400 µM
CC(C)(C)c1cc2c3c(c1)Cc1cc(C(C)(C)C)cc(c1OCc1cn(CCCCCCN4C[C@H](O)[C@@H](O)[C@H](O)[C@H]4CO)nn1)Cc1cc(C(C)(C)C)cc(c1OCc1cn(CCCCCCN4C[C@H](O)[C@@H](O)[C@H](O)[C@H]4CO)nn1)Cc1cc(C(C)(C)C)cc(c1OCc1cn(CCCCCCN4C[C@H](O)[C@@H](O)[C@H](O)[C@H]4CO)nn1)Cc1cc(C(C)(C)C)cc(c1OCc1ccc(cc1)CO3)Cc1cc(C(C)(C)C)cc(c1OCc1cn(CCCCCCN3C[C@H](O)[C@@H](O)[C@H](O)[C@H]3CO)nn1)Cc1cc(C(C)(C)C)cc(c1OCc1cn(CCCCCCN3C[C@H](O)[C@@H](O)[C@H](O)[C@H]3CO)nn1)Cc1cc(C(C)(C)C)cc(c1OCc1cn(CCCCCCN3C[C@H](O)[C@@H](O)[C@H](O)[C@H]3CO)nn1)C2 [Compound 7a],inhibition mode,[2],competitive inhibitors
same,Ki,"[2]; means ± SD, triplicate",7.7 ± 0.7 µM
same,rp/n (relative inhibition potency per DNJ unit),[2]; rp/number of DNJ units,7
OC[C@@H]1[C@@H](O)[C@H](O)[C@H](O)c2nccn21 [mannoimidazole],Ki,"[1]; monovalent inhitope, read-out: Ki (monovalent)",0.11 µM
